Assay results published in patent US5063245A, “Corticotropin-releasing factor antagonism compounds” (Nova Pharmaceutical Corporation, priority 1990, dated 1991).
Counter-ions that a name gives are not always drawn.

What follows are molecules tested against T1, CRF receptor (Rattus norvegicus, UniProt P35353) (assay: In vitro receptor binding: inhibition of specific binding of [125I]tyrosine-oCRF to rat cerebral cortex membranes). Conditions: Table I, Formula I; [125I]Tyr-oCRF 50-100 pM; 2 hours at room temperature; read-out: Inhibition of CRF Binding, Rat Cerebral Cortex Membrane, IC50.
T1 construct: the cerebral cortex was removed and the tissue homogenized; from tissue; host or cells: cerebral cortex membranes of male Sprague-Dawley rats
T1 sequence (P35353 24-415): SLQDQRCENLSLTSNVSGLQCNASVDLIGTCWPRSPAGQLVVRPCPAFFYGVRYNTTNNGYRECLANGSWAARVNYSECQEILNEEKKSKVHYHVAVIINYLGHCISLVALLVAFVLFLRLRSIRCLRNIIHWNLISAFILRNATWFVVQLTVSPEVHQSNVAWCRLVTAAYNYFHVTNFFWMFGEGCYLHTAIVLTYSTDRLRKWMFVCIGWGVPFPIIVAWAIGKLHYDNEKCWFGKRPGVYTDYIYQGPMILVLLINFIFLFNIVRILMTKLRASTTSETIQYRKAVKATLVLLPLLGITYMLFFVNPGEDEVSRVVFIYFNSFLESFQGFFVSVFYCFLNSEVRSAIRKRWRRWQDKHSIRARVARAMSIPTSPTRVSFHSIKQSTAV
Method: The potency of the compounds of the invention as inhibitors of the specific binding of radiolabeled CRF to rat cerebral cortex membranes was examined using a standard in vitro radioligand binding technique. […] The homogenate was centrifuged at 48,000×g for 10 minutes at 4° C. The supernatant was removed, the tissue pellet suspended in the original volume of fresh homogenization buffer using a Polytron and centrifuged as before. […] Incubation buffer consists of 50 mM Hepes (pH 7.0 at 22° C.) containing 10 mM MgCl2, 2 mM EGTA, 0.1 mM bacitracin, 100 KIU (kallikrein inhibitor units)/mL aprotinin and 0.1% BSA (bovine serum albumin). […] Nonspecific binding was determined in the presence of 1 μM oCRF. The binding reaction was allowed to proceed for 2 hours at room temperature. Bound radioligand was separated from the incubation medium by centrifugation in a Beckman microfuge for 5 minutes at 12,000×g. The supernatant was aspirated and the resulting pellet was washed with 1 mL of cold phosphate buffered saline (pH 7.2) containing 0.01% of Triton X-100.
Tyr-oCRF to rat cortical membranes was determined on at least three separate occasions using 8-10 concentrations of each compound and utilizing triplicate incubations. The IC50 and apparent Hill coefficient for each compound were calculated using a computer-assisted log-logit analysis.

Which IC50 does the source give for Cn1c(CN2CCOCC2)c(SC#N)c(=O)n1-c1ccccc1 [Formula I: Ph, CH3, MorCH2, SCN, 2-methyl-3-mopholinomethyl-5-oxo-1-phenyl-3-pyrazolin-4-yl thiocyanate] here?
Its IC50 is 39.8 µM.

With Cc1c(SC#N)c(=O)n(-c2ccc3ccccc3c2)n1C [Formula I: 2-Naphthyl, CH3, CH3, SCN, 2,3-dimethyl-1-naphthyl-5-oxo-3-pyrazolin-4-yl thiocyanate] as the molecule, how does the IC50 read?
Its IC50 is 3.8 µM.

With Cc1c(SC#N)c(=O)n(-c2ccc(I)cc2)n1C [Formula I: 4-IPh, CH3, CH3, SCN, 2,3-dimethyl-5-oxo-1-(4-iodophenyl)-3-pyrazolin-4-yl thiocyanate] as the molecule, how does the IC50 read?
Its IC50 is 6.5 µM.

Same assay, conditions: Table II, Formula II (disulfides); [125I]Tyr-oCRF 50-100 pM; 2 hours at room temperature; read-out: Inhibition of CRF Binding, Rat Cerebral Cortex Membrane, IC50

Cc1c(SSc2c(C)n(C)n(-c3ccc(I)cc3)c2=O)c(=O)n(-c2ccc(I)cc2)n1C [Formula II: 4-IPh, CH3, CH3, 2,3-dimethyl-5-oxo-1-(4-iodophenyl)-3-pyrazolin-4-yl disulfide] was tested. Which IC50 did it give?
Its IC50 is 5.1 µM.

Which IC50 does the source give for Cc1c(SSc2c(C)n(C)n(-c3ccc4ccccc4c3)c2=O)c(=O)n(-c2ccc3ccccc3c2)n1C [Formula II: 2-Naphthyl, CH3, CH3, HCl, 2,3-dimethyl-1-naphthyl-5-oxo-3-pyrazolin-4-yl disulfide] here?
The IC50 was 3.3 µM.

With Cc1c(SSc2c(C)n(C)n(-c3cccc(Cl)n3)c2=O)c(=O)n(-c2cccc(Cl)n2)n1C [Formula II: 6-Cl-2-Pyr, CH3, CH3, 2,3-dimethyl-5-oxo-1-(6-chloro-2-pyridyl)-3-pyrazolin-4-yl disulfide] as the molecule, how does the IC50 read?
The IC50 was 4.3 µM.

How did the IC50 turn out when Cn1c(CN2CCOCC2)c(SSc2c(CN3CCOCC3)n(C)n(-c3ccccc3)c2=O)c(=O)n1-c1ccccc1 [Formula II: Ph, CH3, MorCH2, 2HCl, 2-methyl-3-morpholinylmethyl-5-oxo-1-phenyl-3-pyrazolin-4-yl disulfide] was run?
Its IC50 is 8.2 µM.
